Read-outs that look alike come from different tables or passages of the source.
Key:
[1] = system: Cryptosporidium parvum; test: Activity against Cryptosporidium parvum in suckling mice (oocyst counts); type: in vivo; conditions: suckling ICR outbred Swiss mice; for Oocysts: mean oocyst count, control 36.71; for % Reduction: reduction of mean oocyst count versus control
[2] = target: T1, topoisomerase II isolated from Drosophila melanogaster (Drosophila melanogaster, UniProt P15348); test: Topoisomerase II inhibition (Drosophila melanogaster enzyme); type: biochemical
T1 construct: topoisomerase II isolated from Drosophila melanogaster; from tissue
T1 sequence (P15348 1-1447): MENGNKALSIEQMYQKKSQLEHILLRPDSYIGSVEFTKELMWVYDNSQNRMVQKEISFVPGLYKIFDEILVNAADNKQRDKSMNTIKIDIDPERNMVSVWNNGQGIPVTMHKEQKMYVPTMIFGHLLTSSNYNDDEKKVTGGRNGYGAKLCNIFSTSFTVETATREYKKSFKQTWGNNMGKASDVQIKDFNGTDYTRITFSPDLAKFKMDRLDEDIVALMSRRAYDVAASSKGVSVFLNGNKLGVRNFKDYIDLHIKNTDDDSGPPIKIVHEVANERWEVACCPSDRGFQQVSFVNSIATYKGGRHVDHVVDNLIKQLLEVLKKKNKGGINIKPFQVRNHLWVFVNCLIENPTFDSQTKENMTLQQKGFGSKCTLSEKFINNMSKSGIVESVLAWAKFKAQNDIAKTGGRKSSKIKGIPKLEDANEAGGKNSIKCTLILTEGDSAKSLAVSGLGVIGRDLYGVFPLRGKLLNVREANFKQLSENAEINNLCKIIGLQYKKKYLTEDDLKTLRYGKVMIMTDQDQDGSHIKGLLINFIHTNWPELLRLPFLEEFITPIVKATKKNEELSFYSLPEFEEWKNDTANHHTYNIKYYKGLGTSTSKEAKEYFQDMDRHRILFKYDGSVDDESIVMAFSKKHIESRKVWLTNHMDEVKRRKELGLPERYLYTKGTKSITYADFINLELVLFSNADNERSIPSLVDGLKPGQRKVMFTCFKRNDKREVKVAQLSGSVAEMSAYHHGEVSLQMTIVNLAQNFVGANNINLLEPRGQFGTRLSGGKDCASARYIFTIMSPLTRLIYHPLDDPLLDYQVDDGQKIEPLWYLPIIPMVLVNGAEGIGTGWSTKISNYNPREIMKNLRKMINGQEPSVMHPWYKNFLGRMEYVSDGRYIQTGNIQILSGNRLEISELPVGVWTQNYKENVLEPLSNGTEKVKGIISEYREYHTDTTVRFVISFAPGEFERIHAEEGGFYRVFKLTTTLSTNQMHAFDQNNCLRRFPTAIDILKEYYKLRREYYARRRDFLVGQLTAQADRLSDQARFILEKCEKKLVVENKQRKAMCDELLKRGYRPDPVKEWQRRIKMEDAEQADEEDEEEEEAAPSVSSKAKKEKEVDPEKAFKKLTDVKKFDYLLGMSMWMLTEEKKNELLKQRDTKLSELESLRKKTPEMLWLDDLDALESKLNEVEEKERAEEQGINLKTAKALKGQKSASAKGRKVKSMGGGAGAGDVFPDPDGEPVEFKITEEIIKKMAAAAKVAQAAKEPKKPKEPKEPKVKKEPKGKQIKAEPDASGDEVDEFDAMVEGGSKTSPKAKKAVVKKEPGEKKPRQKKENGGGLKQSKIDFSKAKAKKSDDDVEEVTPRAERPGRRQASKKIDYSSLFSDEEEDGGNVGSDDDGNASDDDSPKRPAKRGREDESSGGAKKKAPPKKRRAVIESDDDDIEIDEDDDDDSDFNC

[3] = system: Pneumocystis carinii; test: In vivo activity against Pneumocystis carinii (lung cyst counts and toxicity); conditions: for Toxicity: toxicity scale, larger value = more severe, values greater than 2 indicate deaths of some animals
[4] = target: topoisomerase II isolated from Giardia lamblia; test: Topoisomerase II inhibition (Giardia lamblia enzyme); type: biochemical; conditions: 50% inhibition of topoisomerase II isolated from Giardia lamblia; read-out: IC50 Topoisomerase Activity II G.l.
[5] = system: Giardia lamblia; test: Inhibition of growth of Giardia lamblia in in vitro culture; type: cell-based
[6] = system: oligomer d(GCGCAATTGCGC)2; test: DNA thermal melting (increase in Tm of oligomer); type: binding; conditions: increase in thermal melting of the oligomer d(GCGCAATTGCGC)2; MES buffer pH 6.0
Protocol: (§1) Thermal melting curves for DNA and its complexes with compounds from Examples 4, 6, and 7-9 are determined as previously described in F.A. Tanious, et al., J.Biomol. Structure & Dynamics 11:1063 (1994) and W.D. Wilson, et al., Biochemistry 32:4098 (1993), by following the adsorption change at 260 nm as a function of temperature. Tm values were determined from first derivative plots. Compounds are compared by the increase in Tm (ΔTm=Tm of complex - Tm of the free nucleic acid) they produce in MES buffer (0.01M 2-(N-morpholino) ethanesulfonic acid, 0.001 M EDTA, 0.1 M NaCl adjusted to pH 6.0) at saturating amounts of compound (a ratio of 0.3 moles of compound to nucleic acid bases) unless otherwise indicated.

[7] = system: poly A poly T; test: DNA thermal melting (increase in Tm of poly A poly T); type: binding; conditions: MES buffer pH 6.0, 0.1 M NaCl, ratio of 0.3 moles of compound to nucleic acid bases
Protocol: as §1

[8] = target: topoisomerase I isolated from Pneumocystis carinii; test: Topoisomerase I inhibition (Pneumocystis carinii enzyme); type: biochemical; conditions: 50% inhibition of topoisomerase I isolated from Pneumocystis carinii
[9] = Pneumocystis carinii, iv, read-out: cyst/g lung (% of control)
[10] = Giardia duodenalis; read-out: IC50 Giardia lamblia

**Q.** How did the Oocysts [1] turn out when `N=C(N)c1ccc(-c2ccc(-c3ccc(C(=N)N)cc3)o2)cc1` [Compound 1, 2,5-bis(4-amidinophenyl)furan] was run?
**A.** Its Oocysts is 6.6.

**Q.** And the “% Reduction” value [1]?
**A.** The value was 66%.

**Q.** And the IC50 [2]?
**A.** The IC50 was 2000 nM.

**Q.** And the response vs control in vivo at 0.027 µM [3, 9]?
**A.** The response vs control in vivo at 0.027 µM was 55.9%.

**Q.** What about the response vs control in vivo at 0.27 µM [3, 9] of the same molecule?
**A.** Its response vs control in vivo at 0.27 µM is 4.8%.

**Q.** And the response vs control in vivo at 2.7 µM [3, 9]?
**A.** Its response vs control in vivo at 2.7 µM is 8.3%.

**Q.** And the response vs control in vivo at 13.3 µM [3, 9]?
**A.** Its response vs control in vivo at 13.3 µM is 2.1%.

**Q.** What about the response vs control in vivo at 66.3 µM ([3]; Pneumocystis carinii, po, read-out: cyst/g lung (% of control)) of the same molecule?
**A.** The response vs control in vivo at 66.3 µM was 28.4%.

**Q.** What about the Toxicity ([3]; dosage 0.027 µM/kg/day intravenous) of the same molecule?
**A.** The Toxicity was 0.

**Q.** And the Toxicity ([3]; dosage 0.27 µM/kg/day intravenous)?
**A.** Its Toxicity is 0.

**Q.** What about the Toxicity ([3]; dosage 2.7 µM/kg/day intravenous) of the same molecule?
**A.** The Toxicity was 0.

**Q.** And the Toxicity ([3]; dosage 13.3 µM/kg/day intravenous)?
**A.** The Toxicity was 0.

**Q.** And the Toxicity ([3]; dosage 66.3 µM/kg/day, oral dosage by gavage)?
**A.** Its Toxicity is 0.

**Q.** What about the IC50 [4] of the same molecule?
**A.** The IC50 was 500 to 1000 nM.

**Q.** What about the IC50 ([5]; Giardia duodenalis, read-out: IC50 Giardia lamblia) of the same molecule?
**A.** The IC50 was 200 nM.

**Q.** And the ΔTm Oligomer [6]?
**A.** Its ΔTm Oligomer is 11.7 °C.

**Q.** What about the ΔTm DNA [7] of the same molecule?
**A.** The ΔTm DNA was 25 °C.

**Q.** What about the IC50 [8] of the same molecule?
**A.** The IC50 was 100000 nM.

**Q.** For `c1cc(-c2ccc(-c3ccc(C4=NCCCN4)cc3)o2)ccc1C1=NCCCN1` [Compound 3, 2,5-di-p[2(3,4,5,6-tetrahydropyrimidyl)phenyl]furan], which IC50 [2] is on record?
**A.** The IC50 was 2500 nM.

**Q.** And the response vs control in vivo at 10.9 µM [3, 9]?
**A.** The response vs control in vivo at 10.9 µM was 0.4%.

**Q.** And the Toxicity ([3]; dosage 10.9 µM/kg/day intravenous)?
**A.** The Toxicity was “+2”.

**Q.** And the IC50 [4]?
**A.** Its IC50 is 500 to 1000 nM.

**Q.** And the IC50 [5, 10]?
**A.** Its IC50 is 60 nM.

**Q.** And the ΔTm Oligomer [6]?
**A.** Its ΔTm Oligomer is 13.5 °C.

**Q.** What about the ΔTm DNA [7] of the same molecule?
**A.** Its ΔTm DNA is > 28 °C.

**Q.** And the IC50 [8]?
**A.** The IC50 was > 100000 nM.

**Q.** For `CC(C)NC(=N)c1ccc(-c2ccc(-c3ccc(C(=N)NC(C)C)cc3)o2)cc1` [Compound 13, 2,5-bis[4-(N-isopropylamidino)phenyl]furan], which Oocysts [1] is on record?
**A.** Its Oocysts is 2.13.

**Q.** And the “% Reduction” value [1]?
**A.** The value was 94.2%.

**Q.** What about the IC50 [2] of the same molecule?
**A.** Its IC50 is 15000 to 30000 nM.

**Q.** What about the Toxicity ([3]; dosage 10.8 µM/kg/day intravenous) of the same molecule?
**A.** The Toxicity was 0.

**Q.** And the IC50 [4]?
**A.** The IC50 was 500 to 1000 nM.

**Q.** What about the IC50 [5, 10] of the same molecule?
**A.** The IC50 was 140 nM.

**Q.** And the ΔTm DNA [7]?
**A.** Its ΔTm DNA is 23.1 °C.
